Literature values, collected in patent US7429577B2, “Augmentation of atypical antipsychotic agent pharmacotherapy with chromium supplementation” (priority 2002, dated 2008).

What was measured:
[1] = olanzapine treatment of patients
[2] = healthy volunteers, 200 μg chromium picolinate per day
[3] = obese Caucasian patients with type-II diabetes receiving sulphonylurea and metformin
[4] = humans, in particular subjects with plasma cholesterol above the 200 μg/ml level

## Cc1cc2c(s1)Nc1ccccc1N=C2N1CCN(C)CC1 [olanzapine]
[1]
  levels of insulin, leptin, blood lipids; insulin resistance: elevated levels of insulin, leptin, and blood lipids, as well as insulin resistance

## chromium picolinate
[2]
  LDL cholesterol decreased by: 11%
  fasting blood glucose decreased by: 24%
  glycosylated hemoglobin decreased by: 19%
  total cholesterol decreased by: 13%
[3]
  fasting insulin levels and glucose control: lowering fasting insulin levels without impairing glucose control
[4]
  blood lipids: efficacious in lowering blood lipids
